Test results reported in patent publication US12264158B2, “Protein kinase MKK4 inhibitors for promoting liver regeneration or reducing or preventing hepatocyte death” (HEPAREGENIX GMBH, priority 2018, dated 2025).

Tests used:
[1] = molecular target: T1, MKK4 (Homo sapiens, UniProt P45985); assay: KINOMEscan competition binding assay, MKK4 potency; settings: concentration of 100 nM
T1 construct: S84/D399; host or cells: HEK-293
T1 sequence (P45985 84-399): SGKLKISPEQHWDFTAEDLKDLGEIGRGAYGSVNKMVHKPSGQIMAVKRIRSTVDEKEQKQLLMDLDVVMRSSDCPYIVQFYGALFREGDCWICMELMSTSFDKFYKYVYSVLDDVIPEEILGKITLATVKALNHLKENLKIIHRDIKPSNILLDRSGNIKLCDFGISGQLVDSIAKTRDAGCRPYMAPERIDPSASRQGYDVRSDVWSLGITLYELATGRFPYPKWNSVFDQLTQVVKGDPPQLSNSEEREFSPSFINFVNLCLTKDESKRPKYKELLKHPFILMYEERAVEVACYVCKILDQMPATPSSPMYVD
Outline: (§1)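 DNA-tagged kinases expressed in HEK-293 cells compete between test compound and immobilized ligand on blocked beads. Bound kinase is eluted and quantified by qPCR of the DNA tag. Compounds were tested at the indicated final concentrations, prepared from 10 mM stocks.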

[2] = molecular target: T2, MKK4 active (Homo sapiens, UniProt P45985); assay: Radiometric protein kinase assay, MKK4 active; assay type: biochemical; settings: substrate JNK1 KRKR, ATP 0.2 μM, read-out: MKK4, potency derived from IC50-values
T2 construct: purchased ProQinase #0948-0000-1
T2 sequence (P45985 1-399): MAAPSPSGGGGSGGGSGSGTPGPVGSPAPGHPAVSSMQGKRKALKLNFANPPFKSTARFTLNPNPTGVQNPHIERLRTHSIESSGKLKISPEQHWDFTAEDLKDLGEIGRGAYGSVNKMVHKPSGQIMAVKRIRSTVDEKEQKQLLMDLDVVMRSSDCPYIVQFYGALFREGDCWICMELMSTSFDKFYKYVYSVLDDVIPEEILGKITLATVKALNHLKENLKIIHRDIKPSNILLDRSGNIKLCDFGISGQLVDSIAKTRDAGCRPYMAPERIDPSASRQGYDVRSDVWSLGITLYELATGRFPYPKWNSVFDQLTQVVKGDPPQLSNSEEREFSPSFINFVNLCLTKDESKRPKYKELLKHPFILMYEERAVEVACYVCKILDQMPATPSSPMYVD
Method: (§2) A radiometric protein kinase assay was used for measuring the kinase activity of the respective protein kinases. All kinase assays were performed in 96-well polypropylene plates. After the reactions were stopped, the assay mixtures were transferred to 96-well MSFC filter-plates (Millipore). The reaction mix was passed through the filter membrane by aspiration, the membrane was washed 3 times with 150 mM H3PO4, once with ethanol, dried and liquid scintillation cocktail was added. Radioactivity was determined by counting of the samples in a Microbeta multiwell scintillation counter (Wallac).

[3] = molecular target: BRaf (Homo sapiens, UniProt P15056); assay: KINOMEscan competition binding assay, selectivity against off-target BRaf; settings: concentration of 100 nM
BRaf, sequence (P15056 whole entry): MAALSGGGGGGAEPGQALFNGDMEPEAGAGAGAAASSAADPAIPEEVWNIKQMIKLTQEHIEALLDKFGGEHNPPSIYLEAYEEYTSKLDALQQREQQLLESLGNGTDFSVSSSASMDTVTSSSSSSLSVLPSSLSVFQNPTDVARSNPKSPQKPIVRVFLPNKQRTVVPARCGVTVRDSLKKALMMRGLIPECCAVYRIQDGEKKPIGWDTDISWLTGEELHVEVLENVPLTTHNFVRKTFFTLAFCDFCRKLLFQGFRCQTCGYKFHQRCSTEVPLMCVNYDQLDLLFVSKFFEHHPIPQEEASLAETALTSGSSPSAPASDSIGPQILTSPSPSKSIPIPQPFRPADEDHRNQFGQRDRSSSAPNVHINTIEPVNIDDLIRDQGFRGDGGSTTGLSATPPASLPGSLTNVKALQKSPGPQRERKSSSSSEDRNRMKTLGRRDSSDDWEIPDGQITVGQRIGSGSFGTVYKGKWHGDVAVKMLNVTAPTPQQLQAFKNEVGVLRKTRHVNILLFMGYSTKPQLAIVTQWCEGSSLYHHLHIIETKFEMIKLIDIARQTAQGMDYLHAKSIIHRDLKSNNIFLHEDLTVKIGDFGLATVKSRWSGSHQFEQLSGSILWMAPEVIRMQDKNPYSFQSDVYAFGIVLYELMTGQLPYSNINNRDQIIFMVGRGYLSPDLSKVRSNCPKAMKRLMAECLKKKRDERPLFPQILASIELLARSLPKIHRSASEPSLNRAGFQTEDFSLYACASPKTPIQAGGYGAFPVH
Outline: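 Competition binding: test compound competes with an immobilized ligand for DNA-tagged BRaf, and kinase captured on the ligand is quantified by qPCR of the DNA tag. Compounds from 10 mM stocks were tested at the indicated final concentrations.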

[4] = molecular target: T3, MEKK2 (Homo sapiens, UniProt Q9Y2U5); assay: Radiometric protein kinase assay, MEKK2; assay type: biochemical; settings: substrate Casein, ATP 0.2 μM; read-out: MEKK2, potency derived from IC50-values
T3 construct: purchased ProQinase #0583-0000-1
T3 sequence (Q9Y2U5 1-619): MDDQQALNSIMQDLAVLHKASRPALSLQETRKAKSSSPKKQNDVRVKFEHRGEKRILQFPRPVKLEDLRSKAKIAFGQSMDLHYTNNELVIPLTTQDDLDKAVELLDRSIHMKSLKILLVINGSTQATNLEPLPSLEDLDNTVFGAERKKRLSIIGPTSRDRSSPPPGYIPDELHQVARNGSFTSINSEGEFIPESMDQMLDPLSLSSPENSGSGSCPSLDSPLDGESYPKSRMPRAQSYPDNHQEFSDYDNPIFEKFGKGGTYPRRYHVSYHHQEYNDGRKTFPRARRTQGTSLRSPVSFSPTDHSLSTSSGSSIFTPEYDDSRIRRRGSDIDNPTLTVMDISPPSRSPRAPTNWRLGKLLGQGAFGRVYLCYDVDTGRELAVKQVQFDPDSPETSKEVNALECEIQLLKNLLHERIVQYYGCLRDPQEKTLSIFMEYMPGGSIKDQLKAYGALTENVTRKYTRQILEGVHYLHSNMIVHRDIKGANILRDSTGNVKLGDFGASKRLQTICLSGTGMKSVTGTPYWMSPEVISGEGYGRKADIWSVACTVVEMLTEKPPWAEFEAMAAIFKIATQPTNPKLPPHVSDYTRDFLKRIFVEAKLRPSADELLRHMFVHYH
Method: as §2

[5] = molecular target: T4, JNK1 (Homo sapiens, UniProt P45983); assay: KINOMEscan competition binding assay, selectivity against off-target JNK1; settings: concentration of 100 nM
T4 construct: M1/Q384; host or cells: HEK-293
T4 sequence (P45983 1-384 isoform P45983-2): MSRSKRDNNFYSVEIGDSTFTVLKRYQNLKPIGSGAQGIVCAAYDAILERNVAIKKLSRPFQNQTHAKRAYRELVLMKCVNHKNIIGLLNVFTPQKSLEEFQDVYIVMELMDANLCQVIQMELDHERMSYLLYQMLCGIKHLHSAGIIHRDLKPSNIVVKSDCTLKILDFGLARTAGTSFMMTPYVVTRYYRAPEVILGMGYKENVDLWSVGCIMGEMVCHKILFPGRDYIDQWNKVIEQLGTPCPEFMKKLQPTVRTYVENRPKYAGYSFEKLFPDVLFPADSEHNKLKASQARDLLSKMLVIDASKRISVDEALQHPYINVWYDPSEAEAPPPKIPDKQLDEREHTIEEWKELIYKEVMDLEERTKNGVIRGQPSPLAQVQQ
Outline: as §1

[6] = molecular target: T5, MKK7 (Homo sapiens, UniProt O14733); assay: KINOMEscan competition binding assay, selectivity against off-target MKK7; settings: concentration of 100 nM
T5 construct: M1/R419; host or cells: HEK-293
T5 sequence (O14733 1-419): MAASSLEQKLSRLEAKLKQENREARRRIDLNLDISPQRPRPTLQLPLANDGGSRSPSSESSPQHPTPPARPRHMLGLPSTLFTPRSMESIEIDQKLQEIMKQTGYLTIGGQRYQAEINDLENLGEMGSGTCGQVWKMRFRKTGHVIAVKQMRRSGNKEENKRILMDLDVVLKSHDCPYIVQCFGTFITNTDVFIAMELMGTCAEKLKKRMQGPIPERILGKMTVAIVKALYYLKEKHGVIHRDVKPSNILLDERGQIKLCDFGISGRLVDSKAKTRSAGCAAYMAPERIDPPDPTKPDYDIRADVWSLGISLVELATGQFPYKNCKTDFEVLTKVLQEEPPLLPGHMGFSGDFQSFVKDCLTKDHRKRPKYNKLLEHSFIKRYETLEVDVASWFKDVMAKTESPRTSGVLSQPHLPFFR
Outline: as §1

[7] = molecular target: T6, MKK4-MEKK2 mix (Homo sapiens, UniProt P45985); assay: Radiometric protein kinase assay, MEKK2 dependent MKK4 activation (cascade); assay type: biochemical; settings: substrate JNK1 KRKR, ATP 0.2 μM, read-out: Cascade, potency derived from IC50-values
T6 construct: MEKK2, recombinant, active: ProQinase product #0583-0000-1
T6 sequence (P45985 2-399): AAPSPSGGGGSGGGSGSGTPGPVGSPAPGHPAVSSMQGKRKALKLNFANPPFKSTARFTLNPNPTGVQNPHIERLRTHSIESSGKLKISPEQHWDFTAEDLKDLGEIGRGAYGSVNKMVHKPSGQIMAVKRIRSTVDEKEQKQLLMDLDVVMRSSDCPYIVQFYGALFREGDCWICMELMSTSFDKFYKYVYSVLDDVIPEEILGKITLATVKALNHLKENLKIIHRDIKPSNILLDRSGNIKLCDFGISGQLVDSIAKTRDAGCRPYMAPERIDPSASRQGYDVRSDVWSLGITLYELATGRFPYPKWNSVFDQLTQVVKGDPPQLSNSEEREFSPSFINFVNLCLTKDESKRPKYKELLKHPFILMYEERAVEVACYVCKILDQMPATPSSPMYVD
Method: The activation step is done in 50 mM HEPES pH 7.5, 50 mM NaCl, 3.8 mM MgCl2, 2.5 mM DTT, 10% (v/v) glycerol. Final DMSO concentration is 1%. The activation mixture is pipetted in the following order • 2.5 μl compound in 4% DMSO • 2.5 μl ATP/MgCl2 mix • 5 μl premixed kinase solution MKK4:MEKK2 10:1 (w/w)
Protein concentrations in the activation mix are 1 μM MKK4 and 50 nM MEKK2.
as §2

SMILES	MKK4, residual percent of control binding (PoC) [1]	IC50 [2] [nM]	Selectivity vs. BRaf, ratio PoC(BRaf)/PoC(MKK4) [3]	IC50 [4] [nM]	Selectivity vs. JNK1, ratio PoC(JNK1)/PoC(MKK4) [5]	Selectivity vs. MKK7, ratio PoC(MKK7)/PoC(MKK4) [6]	IC50 [7] [nM]
CCCS(=O)(=O)Nc1ccc(F)c(C(=O)c2n[nH]c3ncc(-c4ccccc4OC)cc23)c1F [Example 14, N-(2,4-difluoro-3-(5-(2-methoxyphenyl)-1H-pyrazo-lo[3,4-b]pyridine-3-carbonyl)-phenyl)propane-1-sulfon-amide]	++ (1 ≤ PoC < 10)	500 to 1000	+++ (PoC(BRaf)/PoC(MKK4) ≥ 30)	> 10000	++ (30 > PoC(JNK1)/PoC(MKK4) ≥ 10)	+++ (PoC(MKK7)/PoC(MKK4) ≥ 30)	1000 to 10000
CCCS(=O)(=O)Nc1ccc(F)c(C(=O)c2n[nH]c3ncc(-c4ccc(S(N)(=O)=O)cc4F)cc23)c1F [Example 51m, 4-(3-(2,6-difluoro-3-(propylsulfonamido)benzoyl)-1H-pyrazolo[3,4-b]pyridin-5-yl)-3-fluorobenzenesulfonamide]		< 500		1000 to 10000			1000 to 10000

Next, values leading:

MKK4, residual percent of control binding (PoC) [1]	IC50 [2] [nM]	Selectivity vs. BRaf, ratio PoC(BRaf)/PoC(MKK4) [3]	IC50 [4] [nM]	Selectivity vs. JNK1, ratio PoC(JNK1)/PoC(MKK4) [5]	Selectivity vs. MKK7, ratio PoC(MKK7)/PoC(MKK4) [6]	IC50 [7] [nM]	SMILES
+++ (PoC < 1)	< 500	+ (10 > PoC(BRaf)/PoC(MKK4) ≥ 3)	1000 to 10000	+++ (PoC(JNK1)/PoC(MKK4) ≥ 30)	+++ (PoC(MKK7)/PoC(MKK4) ≥ 30)	1000 to 10000	CCCS(=O)(=O)Nc1ccc(F)c(C(=O)c2n[nH]c3ncc(-c4ccc(S(N)(=O)=O)cc4)cc23)c1F [Example 15, 4-(3-(2,6-difluoro-3-(propyl-sulfonamido)benzoyl)-1H-pyrazolo[3,4-b]pyridin-5-yl)benzene-sulfonamide]
++ (1 ≤ PoC < 10)	1000 to 10000	+ (10 > PoC(BRaf)/PoC(MKK4) ≥ 3)	> 10000	++ (30 > PoC(JNK1)/PoC(MKK4) ≥ 10)	++ (30 > PoC(MKK7)/PoC(MKK4) ≥ 10)	1000 to 10000	CCCS(=O)(=O)Nc1ccc(F)c(C(=O)c2n[nH]c3ncc(-c4cccc(OC)c4)cc23)c1F [Example 17, N-(2,4-difluoro-3-(5-(3-methoxyphenyl)-1H-pyrazo-lo[3,4-b]pyridine-3-carbonyl)-phenyl)propane-1-sulfon-amide]
	< 500		< 500			< 500	CCCS(=O)(=O)Nc1c(F)ccc(C(=O)c2n[nH]c3ncc(-c4ccc(S(N)(=O)=O)cc4)cc23)c1F [Example 67, 4-(3-(2,4-difluoro-3-(propylsulfon-amido)benzoyl)-1H-pyrazolo[3,4-b]pyridin-5-yl)benzenesulfonamide]
